Data: patent US8088788B2, “Substituted fused[1,2] imidazo[4,5-c] ring compounds and methods” (3M Innovative Properties Company, priority 2006, dated 2012)

Compound | melting point [°C]
CC1CCc2nc3c(N)nc4ccccc4c3n2N1 (stereo not drawn) [Example 24, 10-Methyl-8,9,10,11-tetrahydropyridazino[1′,6′:1,2]imidazo[4,5-c]quinolin-6-amine] | 241 to 243
Nc1nc2ccccc2c2c1nc1n2CCCN1 [Example 5, 8,9,10,11-Tetrahydropyrimido[1′,2′:1,2]imidazo[4,5-c]quinolin-6-amine] | > 250
Cc1ccc(S(=O)(=O)n2ccc3nc4c(N)nc5ccccc5c4n32)cc1 [Example 25, 10-[(4-Methylphenyl)sulfonyl]-10H-pyrazolo[1′,5′:1,2]imidazo[4,5-c]quinolin-6-amine] | 204 to 206
Nc1nc2cc(Br)ccc2c2c1nc1n2CCCO1 [Example 7, 3-Bromo-10,11-dihydro-9H-[1,3]oxazino[3′,2′:1,2]imidazo[4,5-c]quinolin-6-amine] | 273 to 276

Other lines, results leading:

melting point [°C] | Compound
272 to 274 | C[C@@H]1CNc2nc3c(N)nc4ccccc4c3n21 [Example 28, (10R)-10-Methyl-9,10-dihydro-8H-imidazo[1′,2′:1,2]imidazo[4,5-c]quinolin-6-amine]
265 to 273 | C[C@H]1CNc2nc3c(N)nc4ccccc4c3n21 [Example 27, (10S)-10-Methyl-9,10-dihydro-8H-imidazo[1′,2′:1,2]imidazo[4,5-c]quinolin-6-amine]
